# Measured values: ChEMBL document CHEMBL5257023, “Identification of leads for antiproliferative activity on MDA-MB-435 human breast cancer cells through pharmacophore and CYP1A1-mediated metabolism” (Eur J Med Chem, 2016)
# Counter-ions that a name gives are not always drawn.
# Key:
# MCF7 [1] = test: Anticancer activity against human MCF7 cells assessed as inhibition of cell growth; assay type: functional, cell-based
# CYP1A1 [2] = biological target: T1, CYP1A1 (Homo sapiens, UniProt P04798); test: Inhibition of recombinant CYP1A1 (unknown origin) assessed as residual enzyme activity using 7-ethoxyresorufin as substrate at 0.01 uM incubated for 15 mins by resorufin dye based spectrofluorimetry (reference value: 100%); assay type: ADME; conditions: recombinant CYP1A1, probe 7-ethoxyresorufin, read-out: Activity
# T1 sequence (P04798 whole entry): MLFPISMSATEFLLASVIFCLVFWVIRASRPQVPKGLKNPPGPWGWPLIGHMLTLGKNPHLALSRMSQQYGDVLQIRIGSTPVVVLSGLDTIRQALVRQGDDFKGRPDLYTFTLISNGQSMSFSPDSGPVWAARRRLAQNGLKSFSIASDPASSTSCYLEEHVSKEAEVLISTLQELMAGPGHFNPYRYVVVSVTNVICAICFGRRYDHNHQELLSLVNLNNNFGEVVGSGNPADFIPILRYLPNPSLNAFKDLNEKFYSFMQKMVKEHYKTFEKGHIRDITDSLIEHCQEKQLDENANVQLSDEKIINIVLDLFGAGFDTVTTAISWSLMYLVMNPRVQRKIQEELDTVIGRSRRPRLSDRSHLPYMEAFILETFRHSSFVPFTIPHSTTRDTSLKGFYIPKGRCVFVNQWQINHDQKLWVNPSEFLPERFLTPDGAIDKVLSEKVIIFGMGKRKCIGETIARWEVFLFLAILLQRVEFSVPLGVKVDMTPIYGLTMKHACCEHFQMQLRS
# MDA-MB-435 [3] = test: Anticancer activity against human MDA-MB-435 cells assessed as cell growth at 100 uM incubated for 48 hrs by SRB assay; assay type: functional; conditions: read-out: Activity
# MDA-MB-435 [4] = test: Anticancer activity against human MDA-MB-435 cells assessed as cell growth at 1 uM incubated for 48 hrs by SRB assay; assay type: functional; conditions: read-out: Activity
# CYP1A1 [5] = biological target: T1, CYP1A1; test: Inhibition of recombinant CYP1A1 (unknown origin) assessed as residual enzyme activity using 7-ethoxyresorufin as substrate at 10 uM incubated for 15 mins by resorufin dye based spectrofluorimetry (reference value: 100%); assay type: ADME; conditions: recombinant CYP1A1, probe 7-ethoxyresorufin, read-out: Activity
# MDA-MB-435 [6] = test: Anticancer activity against human MDA-MB-435 cells assessed as cell growth at 0.1 uM incubated for 48 hrs by SRB assay; assay type: functional; conditions: read-out: Activity
# CYP1A1 [7] = biological target: T1, CYP1A1; test: Inhibition of recombinant CYP1A1 (unknown origin) assessed as residual enzyme activity using 7-ethoxyresorufin as substrate at 0.1 uM incubated for 15 mins by resorufin dye based spectrofluorimetry (reference value: 100%); assay type: ADME; conditions: recombinant CYP1A1, probe 7-ethoxyresorufin, read-out: Activity
# MDA-MB-468 [8] = test: Anticancer activity against human MDA-MB-468 cells assessed as inhibition of cell growth incubated for 48 hrs by SRB assay; assay type: functional; conditions: for CC50: read-out: LC50 (the source's name)
# NCI-H226 [9] = test: Anticancer activity against human NCI-H226 cells assessed as cell growth at 1 uM incubated for 48 hrs by SRB assay; assay type: functional; conditions: read-out: Activity
# NCI-H226 [10] = test: Anticancer activity against human NCI-H226 cells assessed as cell growth at 100 uM incubated for 48 hrs by SRB assay; assay type: functional; conditions: read-out: Activity
# MCF7 [11] = test: Anticancer activity against human MCF7 cells assessed as inhibition of cell growth incubated for 48 hrs by SRB assay; assay type: functional; conditions: for CC50: read-out: LC50 (the source's name)
# MCF7 [12] = test: Anticancer activity against human MCF7 cells assessed as cell growth at 10 uM incubated for 48 hrs by SRB assay; assay type: functional; conditions: read-out: Activity
# CYP1A1 [13] = biological target: T1, CYP1A1; test: Inhibition of recombinant CYP1A1 (unknown origin) assessed as residual enzyme activity using 7-ethoxyresorufin as substrate at 50 uM incubated for 15 mins by resorufin dye based spectrofluorimetry (reference value: 100%); assay type: ADME; conditions: recombinant CYP1A1, probe 7-ethoxyresorufin, read-out: Activity
# MDA-MB-435 [14] = test: Anticancer activity against human MDA-MB-435 cells assessed as inhibition of cell growth incubated for 48 hrs by SRB assay; assay type: functional
# CYP1A1 [15] = biological target: T1, CYP1A1; test: Inhibition of recombinant CYP1A1 (unknown origin) assessed as residual enzyme activity using 7-ethoxyresorufin as substrate at 1 uM incubated for 15 mins by resorufin dye based spectrofluorimetry (reference value: 100%); assay type: ADME; conditions: recombinant CYP1A1, probe 7-ethoxyresorufin, read-out: Activity
# NCI-H226 [16] = test: Anticancer activity against human NCI-H226 cells assessed as inhibition of cell growth incubated for 48 hrs by SRB assay; assay type: functional
# NCI-H226 [17] = test: Anticancer activity against human NCI-H226 cells assessed as cell growth at 0.1 uM incubated for 48 hrs by SRB assay; assay type: functional; conditions: read-out: Activity
# MCF7 [18] = test: Anticancer activity against human MCF7 cells assessed as cell growth at 0.1 uM incubated for 48 hrs by SRB assay; assay type: functional; conditions: read-out: Activity
# MCF7 [19] = test: Anticancer activity against human MCF7 cells assessed as cell growth at 1 uM incubated for 48 hrs by SRB assay; assay type: functional; conditions: read-out: Activity
# CYP1A1 [20] = biological target: T1, CYP1A1; test: Inhibition of recombinant CYP1A1 (unknown origin) assessed as residual enzyme activity using 7-ethoxyresorufin as substrate at 100 uM incubated for 15 mins by resorufin dye based spectrofluorimetry (reference value: 100%); assay type: ADME; conditions: recombinant CYP1A1, probe 7-ethoxyresorufin, read-out: Activity
# MDA-MB-435 [21] = test: Anticancer activity against human MDA-MB-435 cells assessed as cell growth at 10 uM incubated for 48 hrs by SRB assay; assay type: functional; conditions: read-out: Activity
# Cytochrome P450 1A1 = biological target: T2, Cytochrome P450 1A1 (Homo sapiens, UniProt P04798); test: Inhibition of recombinant CYP1A1 (unknown origin) assessed as decrease in EROD activity using 7-ethoxyresorufin as substrate upto 100 uM incubated for 15 mins by resorufin dye based spectrofluorimetry; assay type: ADME; conditions: recombinant enzyme, 0.25 h
# T2 sequence (P04798 whole entry): T1 sequence (P04798 whole entry)
# MCF7 [22] = test: Anticancer activity against human MCF7 cells assessed as cell growth at 100 uM incubated for 48 hrs by SRB assay; assay type: functional; conditions: read-out: Activity
# NCI-H226 [23] = test: Anticancer activity against human NCI-H226 cells assessed as cell growth at 10 uM incubated for 48 hrs by SRB assay; assay type: functional; conditions: read-out: Activity
# MDA-MB-468 [24] = test: Anticancer activity against human MDA-MB-468 cells assessed as cell growth at 100 uM incubated for 48 hrs by SRB assay; assay type: functional; conditions: read-out: Activity
# MDA-MB-468 [25] = test: Anticancer activity against human MDA-MB-468 cells assessed as cell growth at 1 uM incubated for 48 hrs by SRB assay; assay type: functional; conditions: read-out: Activity
# MDA-MB-468 [26] = test: Anticancer activity against human MDA-MB-468 cells assessed as cell growth at 0.1 uM incubated for 48 hrs by SRB assay; assay type: functional; conditions: read-out: Activity
# MDA-MB-468 [27] = test: Anticancer activity against human MDA-MB-468 cells assessed as cell growth at 10 uM incubated for 48 hrs by SRB assay; assay type: functional; conditions: read-out: Activity
structure (smiles),measurement,setting,value
CCOc1ccc(-c2nc3cc(F)ccc3s2)cc1OCC,IC50,MCF7 [1],0.0007 µM
COc1ccc(-c2nc3cc(F)ccc3s2)cc1,IC50,MCF7 [1],0.49 µM
Fc1ccc2sc(-c3ccc4c(c3)OCO4)nc2c1,IC50,MCF7 [1],20.7 µM
Oc1ccc(-c2nc3ccc(Br)cc3s2)cc1,IC50,MCF7 [1],4.16 µM
COc1cc(-c2nc3cc(F)ccc3o2)cc(OC)c1OC,IC50,MCF7 [1],16 µM
COc1ccc2nc(-c3ccc(O)cc3)sc2c1,IC50,MCF7 [1],45.8 µM
Oc1ccc(-c2nc3ccc(Cl)cc3s2)cc1,IC50,MCF7 [1],26.5 µM
Oc1ccc(-c2nc3cc(C(F)(F)F)ccc3s2)cc1,IC50,MCF7 [1],13.8 µM
Oc1cccc(-c2nc3cc(F)ccc3s2)c1,IC50,MCF7 [1],0.57 µM
Oc1ccc(-c2nc3cc(F)ccc3s2)cc1,IC50,MCF7 [1],0.4 µM
COc1cc(OC)cc(-c2nc3ccc(F)cc3o2)c1,IC50,MCF7 [1],3.72 µM
COc1ccc(-c2cc(=O)c3ccc(F)cc3o2)cc1OC,IC50,MCF7 [1],27.9 µM
COc1cccc(OC)c1-c1nc2cc(F)ccc2o1,IC50,MCF7 [1],58.1 µM
Fc1ccc2oc(-c3ccc4c(c3)OCO4)nc2c1,IC50,MCF7 [1],61.4 µM
COc1cccc(-c2nc3ccc(F)cc3o2)c1,IC50,MCF7 [1],35.1 µM
COc1ccc(-c2nc3ccc(F)cc3o2)cc1,IC50,MCF7 [1],41 µM
Fc1ccc2nc(-c3ccc4c(c3)OCO4)oc2c1,IC50,MCF7 [1],19.2 µM
COc1ccc(-c2cc(=O)c3cc(F)ccc3o2)cc1OC,IC50,MCF7 [1],83.4 µM
COc1cc(-c2nc3ccc(F)cc3o2)cc(OC)c1OC,IC50,MCF7 [1],1.09 µM
COc1ccccc1-c1nc2cc(F)ccc2o1,IC50,MCF7 [1],0.36 µM
COc1cccc(-c2nc3cc(F)ccc3o2)c1,IC50,MCF7 [1],39.5 µM
COc1ccc(-c2nc3ccc(F)cc3o2)c(OC)c1,IC50,MCF7 [1],69.9 µM
COc1ccc(-c2nc3cc(F)ccc3o2)cc1OC,IC50,MCF7 [1],0.83 µM
COc1cccc(OC)c1-c1nc2ccc(F)cc2o1,IC50,MCF7 [1],90.7 µM
CS(=O)(=O)c1ccc2nc(-c3ccc(O)cc3)sc2c1,IC50,MCF7 [1],62.3 µM
COc1ccc(-c2nc3cc(F)ccc3o2)cc1,IC50,MCF7 [1],22.7 µM
COc1cc(OC)cc(-c2nc3cc(F)ccc3o2)c1,IC50,MCF7 [1],45.4 µM
Cc1ccc(-c2nc3cc(F)ccc3s2)cc1O,IC50,MCF7 [1],0.5 µM
COc1ccccc1-c1nc2ccc(F)cc2s1,IC50,MCF7 [1],0.82 µM
NC(=O)c1c(NC(=O)Cc2ccc(F)cc2)sc2c1CCCC2,"activity at 0.25 h, 0.01 µM",CYP1A1 [2],99.8%
same,growth at 100 µM,MDA-MB-435 [3],84.9%
same,growth at 1 µM,MDA-MB-435 [4],99.3%
same,"activity at 0.25 h, 10 µM",CYP1A1 [5],102%
same,growth at 0.1 µM,MDA-MB-435 [6],99.7%
same,"activity at 0.25 h, 0.1 µM",CYP1A1 [7],102%
same,GI50,MDA-MB-468 [8],91 µM
same,TGI,MDA-MB-468 [8],> 100 µM
same,CC50,MDA-MB-468 [8],> 100 µM
same,growth at 1 µM,NCI-H226 [9],78.7%
same,growth at 100 µM,NCI-H226 [10],33%
same,GI50,MCF7 [11],68.1 µM
same,TGI,MCF7 [11],> 100 µM
same,CC50,MCF7 [11],> 100 µM
same,growth at 10 µM,MCF7 [12],79.3%
same,"activity at 0.25 h, 50 µM",CYP1A1 [13],98.1%
same,GI50,MDA-MB-435 [14],> 100 µM
same,LC50,MDA-MB-435 [14],> 100 µM
same,TGI,MDA-MB-435 [14],> 100 µM
same,"activity at 0.25 h, 1 µM",CYP1A1 [15],100%
same,GI50,NCI-H226 [16],65.7 µM
same,LC50 (concentration killing 50% of cells),NCI-H226 [16],> 100 µM
same,TGI,NCI-H226 [16],> 100 µM
same,growth at 0.1 µM,NCI-H226 [17],89.8%
same,growth at 0.1 µM,MCF7 [18],89.7%
same,growth at 1 µM,MCF7 [19],84.8%
same,"activity at 0.25 h, 100 µM",CYP1A1 [20],102%
same,growth at 10 µM,MDA-MB-435 [21],98.9%
same,inhibition (INH),Cytochrome P450 1A1,Not Active
same,growth at 100 µM,MCF7 [22],32.2%
same,growth at 10 µM,NCI-H226 [23],71.9%
Cc1c(F)c(N)c2c(=O)cc(-c3ccc(N)c(F)c3)oc2c1F [AMINOFLAVONE],IC50,MCF7 [1],0.035 µM
COc1cccc2c1C(=O)c1c(O)c3c(c(O)c1C2=O)C[C@@](O)(C(=O)CO)C[C@@H]3O[C@H]1C[C@H](N)[C@H](O)[C@H](C)O1 [DOXORUBICIN HYDROCHLORIDE],growth at 100 µM,MDA-MB-435 [3],-30.9%
same,growth at 1 µM,MDA-MB-435 [4],42.8%
same,growth at 0.1 µM,MDA-MB-435 [6],50.8%
same,GI50,MDA-MB-468 [8],10.5 µM
same,TGI,MDA-MB-468 [8],50.4 µM
same,CC50,MDA-MB-468 [8],90.2 µM
same,growth at 1 µM,NCI-H226 [9],12.7%
same,growth at 100 µM,MDA-MB-468 [24],-60.9%
same,growth at 100 µM,NCI-H226 [10],-38.3%
same,GI50,MCF7 [11],< 0.1 µM
same,TGI,MCF7 [11],90.4 µM
same,CC50,MCF7 [11],> 100 µM
same,growth at 10 µM,MCF7 [12],10.5%
same,GI50,MDA-MB-435 [14],< 0.1 µM
same,TGI,MDA-MB-435 [14],43.4 µM
same,GI50,NCI-H226 [16],< 0.1 µM
same,TGI,NCI-H226 [16],43.2 µM
same,growth at 1 µM,MDA-MB-468 [25],64.5%
same,growth at 0.1 µM,NCI-H226 [17],57.4%
same,growth at 0.1 µM,MCF7 [18],28.5%
same,growth at 1 µM,MCF7 [19],17.2%
same,growth at 0.1 µM,MDA-MB-468 [26],83%
same,growth at 10 µM,MDA-MB-435 [21],-26.6%
same,growth at 100 µM,MCF7 [22],-1.6%
same,growth at 10 µM,NCI-H226 [23],8.1%
same,growth at 10 µM,MDA-MB-468 [27],22%
